# According to patent US6150390A, “3-amino-1,2-benzoisoxazole derivatives, process for preparation, and use thereof” (Dong Wha Pharm. Ind. Co., Ltd., priority 1997, dated 2000):
# Read-outs that look alike come from different tables or passages of the source.
# Key:
# [1] = target: T1, LTB-4 receptor (Homo sapiens, UniProt Q15722); test: Antagonizing action for LTB-4 receptor ([3H]-LTB-4 binding to human neutrophils); conditions: for inhibition at 0.01 µM: 10 nM, read-out: Degree of inhibition (%) 10 nM; for inhibition at 0.01 µM / inhibition at 0.1 µM / inhibition at 1 µM: inhibition of selective [3H]-LTB-4 binding, human neutrophils; for inhibition at 0.1 µM: 100 nM, read-out: Degree of inhibition (%) 100 nM; for inhibition at 1 µM: read-out: Degree of inhibition (%) 1 μM
# T1 construct: Final neutrophil was dispersed to 3×10^7 cell/ml in HBSS media and used for measuring the antagonizing action for LTB-4 receptor; endogenous in cells; host or cells: neutrophils from human whole blood
# T1 sequence (Q15722 whole entry): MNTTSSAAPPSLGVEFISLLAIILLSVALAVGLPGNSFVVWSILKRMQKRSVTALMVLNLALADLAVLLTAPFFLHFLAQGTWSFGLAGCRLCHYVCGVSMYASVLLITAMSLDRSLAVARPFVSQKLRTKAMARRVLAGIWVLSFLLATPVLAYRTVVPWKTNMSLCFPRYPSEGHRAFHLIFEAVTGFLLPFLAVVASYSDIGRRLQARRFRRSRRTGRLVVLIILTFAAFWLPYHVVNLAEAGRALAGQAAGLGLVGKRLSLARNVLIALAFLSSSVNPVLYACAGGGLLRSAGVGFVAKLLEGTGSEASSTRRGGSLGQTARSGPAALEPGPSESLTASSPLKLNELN
# Procedure: Neutrophil was separated from whole blood of human by precipitation using "Dextran T-500", and by the inclined centrifugation with Ficoll/Paque (Pharmacia Co.) Boyum, Scan. J. Clin. Lab. Invest., 21 suppl.
# Mixed erythrocyte was removed by hemolysis of hypotonic solution. Final neutrophil was dispersed to 3×10^7 cell/ml in HBSS media and used for measuring the antagonizing action for LTB-4 receptor.
# 0.5 nM of [^3 H]-LTB-4 (200 Ci/mmol), test sample to measure the antagonizing action for LTB-4 receptor, and cell dispersed in HBSS media was added to 12 mm×75 mm of polyethylene tube (final volume: 200 μl), and left in ice bath for 45 minutes.
# To separate [^3 H]-LTB-4 bound to neutrophil and isolated [^3 H]-LTB-4 not bound to neutrophil, the above mixture was filtered through GF/C filter (made by Wattman Co.). Filter paper was washed with pH 7.4 of cold Tris-buffer solution (5 ml) for 3 times, dried, and measured radioactivity. The selective binding of LTB-4 to neutrophil can be detected by the difference between radioactivities without antagonist in case that LTB-4 was totally bound to neutrophil, and that LTB-4 was bound to neutrophil in addition of radioisotope-unlabeled LTB-4 1000 times.
# [2] = reported in the literature; cited from earlier work
# [3] = system: cells of calvariae of fetal rat (bonelike nodule forming); test: Bonelike nodule forming in cultured fetal rat calvaria cells; assay type: cell-based; conditions: for Area of nodule (mm^2): control 0.12 ± 0.026; for Number of nodule (No.): control 10.04 ± 1.23
# Procedure: Approximately 30 of calvariae of fetal rat, removed all the tissue, was dissolved in 5 ml sterilized colagenase (0.1%) and trypsin solution (0.05%) at 37° C. 20 Minutes after dissolving, the released cells were collected, and hereto was added fetal serum to the same amount. This procedure was carried out for 3-6 times in every 20 minutes to collect the isolated cells. Collected cells were separated by centrifugation ([…]) for 5 minutes and it was suspended in α-MEM media, containing 10% (v/v) fetal bovine serum. Collected cells were cultivated in petri dish for 2-3 days, then separated with trypsin, and it were placed in 96 wells to 2.0×10^3 cells/100 μl in each well.
# After cultivating the cells for 2-3 days, the media were changed to 5% fetal calf serum, 150 μg/ml ascorbic acid and 5 mM β-glycerophosphate, plus or minus sample (HS-1141). The control was in wells without the sample, and this time was arbitrarily set as […]. Formed nodule was analyzed with image analyzer (Biorad Co., U.S.A.); camcorder (SONY Co.); and microscope (Leitz Co.).
SMILES,inhibition at 0.01 µM [1],inhibition at 0.1 µM [1],inhibition at 1 µM [1],IC50 [1],toxicity to stimulate stomach and intestine [2],effect of antagonizing action for LTB-4 receptor compared with CGS-25019C ([1]; compared with known compound CGS-25019C),"IC50 ([1]; concentration of 50% of antagonizing in binding to receptor, read-out: IC50)",Area of nodule (mm^2) ([3]; 10-11 M),Number of nodule (No.) ([3]; 10-11 M),Area of nodule (mm^2) ([3]; 10^-8 M),Number of nodule (No.) ([3]; 10^-8 M),Area of nodule (mm^2) ([3]; 10^-9 M),Number of nodule (No.) ([3]; 10^-9 M),Area of nodule (mm^2) ([3]; 10^-10 M),Number of nodule (No.) ([3]; 10^-10 M),"increase of remodeling of bonelike nodule ([3]; from Table II, versus control)"
"COc1cc(C(=O)N(C(C)C)C(C)C)ccc1OCCCOc1ccc2c(N)noc2c1 [HS-1151, N,N-diisopropyl-4-[3-(3-aminobenzo[d]isoxazol-6-yloxy)propoxy]-3-methoxybenzamide]",< 10%,37%,92%,,,,,,,,,,,,,
"COc1cc(C(=O)N(C(C)C)C(C)C)ccc1OCCCCCOc1ccc(C(=N)N)cc1 [CGS-25019C, reference compound]",11%,68%,97%,80 nM,toxicity to stimulate stomach and intestine,,,,,,,,,,,
"COc1cc(C(=O)N(C(C)C)C(C)C)ccc1OCCCCOc1ccc2c(N)noc2c1 [HS-1141, N,N-diisopropyl-4-[4-(3-aminobenzo[d]isoxazol-6-yloxy)butoxy]-3-methoxybenzamide]",64%,95%,99%,,,better,7 nM,0.342 ± 0.065 mm^2,25.67 ± 3.54 No.,0.273 ± 0.019 mm^2,22.80 ± 4.71 No.,0.379 ± 0.068 mm^2,24.00 ± 4.04 No.,0.320 ± 0.082 mm^2,19.40 ± 1.29 No.,> 2 times
"COc1cc(C(=O)N(C(C)C)C(C)C)ccc1OCCCCCOc1ccc2c(N)noc2c1 [HS-1132, N,N-diisopropyl-4-[5-(3-aminobenzo[d]isoxazol-6-yloxy)pentoxy]-3-methoxybenzamide]",< 10%,10%,90%,,,,,,,,,,,,,
